The supplement of paper PMC8882468

How the values were obtained:
Assay in all cases: CTG-3D luminescence at 96 h relative to day-0 seeding control (ratio to day 0); higher = more growth / less cytotoxicity
HCI-008 = system: HCI-008 (organoid from a HER2-enriched breast cancer xenograft)
Protocol: (§1)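 PDX-derived breast cancer organoids (PDxO) in 384-well Matrigel plates, 8-point dose (0.000000625-100 uM), 96 h at 37 C; CellTiter-Glo 3D luminescence normalised to the day-0 seeding control (mean of 4 technical replicates over mean of 4 day-0 wells).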

HCI-003.E2 = system: HCI-003.E2 (organoid from an ER-positive breast cancer xenograft)
Protocol: as §1

HCI-002 = system: HCI-002 (organoid from a triple-negative breast cancer xenograft)
Protocol: as §1

MDA-MB-231 = system: MDA-MB-231
Protocol: as §1

O=c1[nH]cc(F)c(=O)[nH]1 [5-fluorouracil]
CTG-3D luminescence at 96 h
Conditions | 12.5 pM | 0.00025 µM | 0.005 µM | 0.1 µM | 1 µM | 10 µM | 100 µM | 625 fM
HCI-002, days in culture: 62 | 2.85 | 2.76 | 3.08 | 2.64 | 2.28 | 2.07 | 1.07 | 3.16
HCI-002, days in culture: 82 | 2.94 | 2.81 | 2.15 | 2.78 | 2.66 | 1.66 | 1.08 | 3.04
HCI-002, days in culture: 91 | 4.34 | 3.73 | 3.78 | 4.16 | 2.98 | 3.14 | 1.6 | 4.03
HCI-002, days in culture: 191 | 2.53 | 2.58 | 2.45 | 2.4 | 2.34 | 1.91 | 1.22 | 2.43
HCI-002, days in culture: 209 | 2.41 | 2.39 | 2.11 | 2.23 | 2.05 | 1.43 | 1.02 | 2.45
HCI-002, days in culture: 227 | 6.3 | 6.54 | 6.31 | 7.6 | 5.98 | 3.45 | 1.93 | 6.49
HCI-008, days in culture: 228 | 1.95 | 2.08 | 1.74 | 1.52 | 1.51 | 1.51 | 0.917 | 1.88
HCI-008, days in culture: 244 | 1.38 | 1.81 | 2.06 | 1.88 | 1.6 | 1.53 | 1.03 | 2.2

CTG-3D luminescence at 96 h
Conditions | 12.5 pM | 0.00025 µM | 0.005 µM | 0.1 µM | 1 µM | 10 µM | 100 µM | 625 fM
HCI-003.E2 | 2.25 | 2.06 | 1.93 | 2.08 | 1.85 | 1.87 | 0.993 | 2.19
MDA-MB-231 | 4.33 | 4.19 | 4.49 | 4.31 | 4.4 | 4.03 | 3.35 | 4.34
